Measured values as given in article PMC10700596 (Nature Communications, 2023).
Like-named read-outs stand apart in the source and are kept apart here.

What was measured:
EP4R = target: T1, EP4R (Homo sapiens, UniProt P35408); test: PRESTO-Tango β-arrestin2 recruitment assay; format: cell-based
T1 construct: Tango fusion cassette (only 'tango' is printed); expressed in transfected cells; host or cells: HTLA cells (tTA-dependent luciferase reporter, β-arrestin2-TEV fusion)

in vivo = format: in vivo, mice
[1] = male, CD-1, mouse, plasma, ip, 10 mg/kg, mice, IP 10 mg/kg, plasma, mean of 3 animals, read-out: Plasma concentration C (mean)
[2] = male, CD-1, mouse, plasma, ip, 10 mg/kg, mice, IP 10 mg/kg, plasma, single animal, D=1, read-out: Final plasma concentration, individual sample
[3] = male, CD-1, mouse, plasma, iv, 10 mg/kg, mice, IV 10 mg/kg, plasma, single animals, read-out: Plasma concentration, Final (individual mouse)
[4] = male, CD-1, mouse, plasma, iv, 10 mg/kg, mice, IV 10 mg/kg, plasma, read-out: Plasma concentration C (mean)

T1 sequence (P35408 whole entry, the tested form may be a part): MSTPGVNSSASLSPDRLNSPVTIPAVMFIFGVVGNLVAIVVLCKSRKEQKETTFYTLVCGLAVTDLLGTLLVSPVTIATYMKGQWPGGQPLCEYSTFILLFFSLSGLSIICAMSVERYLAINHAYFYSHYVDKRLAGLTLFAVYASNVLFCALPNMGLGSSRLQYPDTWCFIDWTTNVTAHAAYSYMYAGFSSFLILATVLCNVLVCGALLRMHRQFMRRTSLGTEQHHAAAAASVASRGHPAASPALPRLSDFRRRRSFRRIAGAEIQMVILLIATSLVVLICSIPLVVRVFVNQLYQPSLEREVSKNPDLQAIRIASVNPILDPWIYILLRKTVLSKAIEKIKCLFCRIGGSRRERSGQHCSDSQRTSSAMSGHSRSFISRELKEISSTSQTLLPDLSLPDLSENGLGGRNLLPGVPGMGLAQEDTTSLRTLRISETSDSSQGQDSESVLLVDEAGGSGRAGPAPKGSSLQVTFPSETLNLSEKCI

Which results are given for O=C([O-])C1CCC2(CC1)CC(Nc1ncnc3[nH]c4c(F)cccc4c13)C2.[Na+] (centres unmarked) [Compound 77, [Na+].[O-]C(=O)C1CCC2(CC(C2)NC=3N=CN=C4NC=5C(F)=CC=CC5C34)CC1]?
IC50 (EP4R; PRESTO-Tango IC50 (nM)): 232 nM; Ki (EP4R; calculated using the Cheng Prusoff equation, read-out: PRESTO-Tango Ki*): 46 nM; concentrations in blood compared to CJ-42794 (in vivo; 10 mg/kg i.p., two to four hours after injection): higher concentrations in blood two to four hours after injection; concentration at 5 min (in vivo; [1]): 2420 ng/mL; concentration at 5 min (in vivo; [2]): 2380 ng/mL; concentration at 15 min (in vivo; [1]): 7250 ng/mL; concentration at 15 min (in vivo; [2]): 6880 ng/mL; concentration at 30 min (in vivo; [1]): 6710 ng/mL; concentration at 30 min (in vivo; [2]): 8130 ng/mL; concentration at 60 min (in vivo; [1]): 9910 ng/mL; concentration at 60 min (in vivo; [2]): 10900 ng/mL; concentration at 120 min (in vivo; [1]): 6380 ng/mL; concentration at 240 min (in vivo; [1]): 3590 ng/mL; concentration at 360 min (in vivo; [1]): 1980 ng/mL; concentration at 360 min (in vivo; [2]): 1660 ng/mL; concentration at 480 min (in vivo; [1]): 753 ng/mL; concentration at 480 min (in vivo; [2]): 889 ng/mL; concentration at 1440 min (in vivo; [1]): 17 ng/mL; concentration at 1440 min (in vivo; [2]): 18.9 ng/mL; Cmax (in vivo; male, CD-1, mouse, plasma, ip, 10 mg/kg i.p., mice): 9910 ng/mL; AUC (in vivo; male, CD-1, mouse, plasma, ip, 10 mg/kg i.p., mice, read-out: plasma AUC (converted)): 39500 ng·h/mL; concentration at 5 min (in vivo; [3]): 24100 ng/mL; concentration at 5 min (in vivo; [4]): 26200 ng/mL; concentration at 15 min (in vivo; [3]): 14400 ng/mL; concentration at 15 min (in vivo; [4]): 17000 ng/mL; concentration at 30 min (in vivo; [3]): 10900 ng/mL; concentration at 30 min (in vivo; [4]): 12700 ng/mL; concentration at 60 min (in vivo; [3]): 11000 ng/mL; concentration at 60 min (in vivo; [4]): 10500 ng/mL; concentration at 120 min (in vivo; [3]): 4760 ng/mL; concentration at 120 min (in vivo; [4]): 4090 ng/mL; concentration at 240 min (in vivo; [3]): 2370 ng/mL; concentration at 240 min (in vivo; [4]): 2080 ng/mL; concentration at 360 min (in vivo; [3]): 1260 ng/mL; concentration at 360 min (in vivo; [4]): 1730 ng/mL; concentration at 480 min (in vivo; [4]): 1240 ng/mL; concentration at 1440 min (in vivo; [4]): 43.2 ng/mL; AUC (in vivo; male, CD-1, mouse, plasma, iv, 10 mg/kg i.v., mice, read-out: AUC (converted)): 46200 ng·h/mL; bioavailability (in vivo; male, CD-1, mouse, plasma, oral, 30 mg/kg p.o. vs 10 mg/kg i.v., mice): 78%; concentration at 5 min (in vivo; male, CD-1, mouse, plasma, po, 30 mg/kg, mice, PO 30 mg/kg, plasma, read-out: Plasma concentration C (mean)): 4340 ng/mL; concentration at 15 min (in vivo; male, CD-1, mouse, plasma, po, 30 mg/kg, mice, PO 30 mg/kg, plasma, single animals, read-out: Plasma concentration, Final (individual mouse)): 17600 ng/mL
